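1) Cells in 96-well plates. 2) Compound, 48 h, 5 concentrations. 3) Linear interpolation between surrounding doses. 4) Unreached endpoint = highest concentration. GI50: concentration for 50% inhibition of growth. TGI: concentration producing complete growth inhibition.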
What was measured:
Assay in all cases: NCI tumour cell line growth inhibition, 48 h
RXF 393 renal = tested on: RXF 393 renal
SNB-75 CNS = tested on: SNB-75 CNS
OVCAR-5 ovarian = tested on: OVCAR-5 ovarian
RPMI-8226 leukemia = tested on: RPMI-8226 leukemia
UACC-62 melanoma = tested on: UACC-62 melanoma
MDA-N = tested on: MDA-N
HOP-62 NSCLC = tested on: HOP-62 NSCLC
K-562 leukemia = tested on: K-562 leukemia
OVCAR-8 ovarian = tested on: OVCAR-8 ovarian
NCI-H226 lung = tested on: NCI-H226 lung
UO-31 renal = tested on: UO-31 renal
786-0 renal = tested on: 786-0 renal
BT-549 breast = tested on: BT-549 breast
SK-OV-3 ovarian = tested on: SK-OV-3 ovarian
COLO 205 colon = tested on: COLO 205 colon
ACHN renal = tested on: ACHN renal
DU-145 prostate = tested on: DU-145 prostate
PC-3 prostate = tested on: PC-3 prostate
MCF7 breast = tested on: MCF7 breast
CCRF-CEM leukemia = tested on: CCRF-CEM leukemia
IGROV1 ovarian = tested on: IGROV1 ovarian
HT29 colon = tested on: HT29 colon
HCC-2998 colon = tested on: HCC-2998 colon
SF-539 CNS = tested on: SF-539 CNS
MALME-3M melanoma = tested on: MALME-3M melanoma
SNB-19 CNS = tested on: SNB-19 CNS
KM12 colon = tested on: KM12 colon
TK-10 renal = tested on: TK-10 renal
HL-60(TB) leukemia = tested on: HL-60(TB) leukemia
CAKI-1 renal = tested on: CAKI-1 renal
LOX IMVI melanoma = tested on: LOX IMVI melanoma
SW-620 colon = tested on: SW-620 colon
HS 578T breast = tested on: HS 578T breast
NCI-H23 lung = tested on: NCI-H23 lung
SN12C renal = tested on: SN12C renal
OVCAR-4 ovarian = tested on: OVCAR-4 ovarian
HCT-116 colon = tested on: HCT-116 colon
A498 renal = tested on: A498 renal
MDA-MB-435 = tested on: MDA-MB-435
U251 CNS = tested on: U251 CNS
T-47D breast = tested on: T-47D breast
SK-MEL-2 melanoma = tested on: SK-MEL-2 melanoma
SF-268 CNS = tested on: SF-268 CNS
NCI-H522 lung = tested on: NCI-H522 lung
SR leukemia = tested on: SR leukemia
NCI/ADR-RES ovarian = tested on: NCI/ADR-RES ovarian
EKVX NSCLC = tested on: EKVX NSCLC
A549 NSCLC = tested on: A549 NSCLC
HOP-92 NSCLC = tested on: HOP-92 NSCLC
M14 melanoma = tested on: M14 melanoma
SK-MEL-28 melanoma = tested on: SK-MEL-28 melanoma
SK-MEL-5 melanoma = tested on: SK-MEL-5 melanoma
NCI-H460 lung = tested on: NCI-H460 lung
OVCAR-3 ovarian = tested on: OVCAR-3 ovarian
MDA-MB-231 breast = tested on: MDA-MB-231 breast
SF-295 CNS = tested on: SF-295 CNS
UACC-257 melanoma = tested on: UACC-257 melanoma
HCT-15 colon = tested on: HCT-15 colon
MOLT-4 leukemia = tested on: MOLT-4 leukemia

O=C1CCC(N2C(=O)c3ccccc3C2=O)C(=O)N1 (centres undefined)
TGI (RXF 393 renal): > 100 µM
TGI (SNB-75 CNS): > 100 µM
TGI (OVCAR-5 ovarian): > 100 µM
TGI (RPMI-8226 leukemia): > 100 µM
TGI (UACC-62 melanoma): > 100 µM
TGI (MDA-N): > 100 µM
TGI (HOP-62 NSCLC): > 100 µM
TGI (K-562 leukemia): > 100 µM
TGI (OVCAR-8 ovarian): > 100 µM
GI50 (NCI-H226 lung): > 100 µM
TGI (NCI-H226 lung): > 100 µM
TGI (UO-31 renal): > 100 µM
TGI (786-0 renal): > 100 µM
TGI (BT-549 breast): > 100 µM
TGI (SK-OV-3 ovarian): > 100 µM
TGI (COLO 205 colon): > 100 µM
TGI (ACHN renal): > 100 µM
TGI (DU-145 prostate): > 100 µM
TGI (PC-3 prostate): > 100 µM
TGI (MCF7 breast): > 100 µM
TGI (CCRF-CEM leukemia): > 100 µM
TGI (IGROV1 ovarian): > 100 µM
GI50 (HT29 colon): > 100 µM
TGI (HT29 colon): > 100 µM
TGI (HCC-2998 colon): > 100 µM
GI50 (SF-539 CNS): > 100 µM
TGI (SF-539 CNS): > 100 µM
TGI (MALME-3M melanoma): > 100 µM
TGI (SNB-19 CNS): > 100 µM
TGI (KM12 colon): > 100 µM
GI50 (TK-10 renal): > 100 µM
TGI (TK-10 renal): > 100 µM
GI50 (HL-60(TB) leukemia): > 100 µM
TGI (HL-60(TB) leukemia): > 100 µM
TGI (CAKI-1 renal): > 100 µM
GI50 (LOX IMVI melanoma): > 100 µM
TGI (LOX IMVI melanoma): > 100 µM
TGI (SW-620 colon): > 100 µM
TGI (HS 578T breast): > 100 µM
TGI (NCI-H23 lung): > 100 µM
TGI (SN12C renal): > 100 µM
TGI (OVCAR-4 ovarian): > 100 µM
TGI (HCT-116 colon): > 100 µM
GI50 (A498 renal): > 100 µM
TGI (A498 renal): > 100 µM
TGI (MDA-MB-435): > 100 µM
TGI (U251 CNS): > 100 µM
TGI (T-47D breast): > 100 µM
TGI (SK-MEL-2 melanoma): > 100 µM
TGI (SF-268 CNS): > 100 µM
TGI (NCI-H522 lung): > 100 µM
TGI (SR leukemia): > 100 µM
TGI (NCI/ADR-RES ovarian): > 100 µM
TGI (EKVX NSCLC): > 100 µM
TGI (A549 NSCLC): > 100 µM
TGI (HOP-92 NSCLC): > 100 µM
TGI (M14 melanoma): > 100 µM
GI50 (SK-MEL-28 melanoma): > 100 µM
TGI (SK-MEL-28 melanoma): > 100 µM
TGI (SK-MEL-5 melanoma): > 100 µM
TGI (NCI-H460 lung): > 100 µM
GI50 (OVCAR-3 ovarian): > 100 µM
TGI (OVCAR-3 ovarian): > 100 µM
GI50 (MDA-MB-231 breast): > 100 µM
TGI (MDA-MB-231 breast): > 100 µM
TGI (SF-295 CNS): > 100 µM
TGI (UACC-257 melanoma): > 100 µM
TGI (HCT-15 colon): > 100 µM
TGI (MOLT-4 leukemia): > 100 µM

— PubChem BioAssay (NCI)
